PubChem BioAssay (NCI)
Where “and” joins values, the source holds several entries; their conditions need not be identical. Equal entries are not always repeated.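 In this assay, cells in 96-well plates receive the compound at five concentrations for 48 hours. Endpoints are linearly interpolated between the surrounding concentrations. GI50 = concentration required for 50% inhibition of growth. Definition used: TGI = concentration required for complete inhibition of growth.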

How the values were obtained:
Assay in all cases: growth of human tumour cells (NCI), 48 h
[1] = system: 786-0 renal
[2] = system: A498 renal
[3] = system: CAKI-1 renal
[4] = system: CCRF-CEM leukemia
[5] = system: COLO 205 colon
[6] = system: EKVX NSCLC
[7] = system: HCT-15 colon
[8] = system: HOP-62 NSCLC
[9] = system: IGROV1 ovarian
[10] = system: M14 melanoma
[11] = system: MCF7 breast
[12] = system: MDA-MB-231 breast
[13] = system: NCI-H460 lung
[14] = system: NCI/ADR-RES ovarian
[15] = system: OVCAR-5 ovarian
[16] = system: SK-MEL-2 melanoma
[17] = system: SK-MEL-28 melanoma

SMILES	TGI [1]	TGI [2]	TGI [3]	TGI [4]	TGI [5]	TGI [6]	TGI [7]	TGI [8]	TGI [9]	TGI [10]	TGI [11]	TGI [12]	TGI [13]	TGI [14]	TGI [15]	TGI [16]	TGI [17]	GI50 [5]	GI50 [10]	GI50 [13]
CN(C)CCNc1ccc2nnn3c4ccc(Cl)cc4c(=O)c1c23	15.6 µM	11.3 µM	11 µM	> 52.8 µM	10.5 µM	22.2 µM	14.8 µM	21.4 µM	38.7 µM	16.7 µM	96.2 µM	25.7 µM	14.8 µM	15.9 µM	13.3 µM	16.8 µM	18 µM			
O=C1c2ccccc2C(=O)c2[nH]c(=O)c(/C=N/Nc3ccc([N+](=O)[O-])cc3)nc21	> 62.2 µM	14.2 µM	> 75.2 µM	> 100 µM	75.6 µM	> 73 µM	> 38.8 µM	> 21.3 µM	> 48.8 µM	5.01 µM	> 44 µM	> 51.6 µM	4.18 µM	> 61.6 µM	> 76.5 µM	12.1 µM	> 30.5 µM			
C[C@@H]1O[C@@H]2OCC[C@@H]2C2=C1C(=O)c1ccccc1C2=O	29.1 µM	32.4 µM	29.8 µM	33.8 µM	51.3 µM	39.9 µM	44.5 µM	31.5 µM	10.8 µM	14.2 µM	2.81 µM	> 100 µM	31.9 µM	14 µM	4.3 µM	25.7 µM	51.5 µM			
CCOc1ccccc1N=NC1C(=O)N(C(=O)CC(=O)Nc2ccccc2Cl)N=C1C (centres undefined)	> 100 µM	> 100 µM	> 100 µM	> 100 µM	> 100 µM	80.9 µM	> 100 µM	68.8 µM	> 100 µM	> 100 µM	> 100 µM	> 100 µM	> 100 µM	> 100 µM	> 100 µM	> 100 µM	> 100 µM			
CC(=O)OCC1OC(Sc2nc(-c3ccc(C)cc3)c(C#N)c(=O)n2C2OC(COC(C)=O)C(OC(C)=O)C(OC(C)=O)C2OC(C)=O)C(OC(C)=O)C(OC(C)=O)C1OC(C)=O (centres undefined)	> 100 µM	> 100 µM	> 100 µM	> 100 µM	> 100 µM	> 100 µM	> 100 µM	> 100 µM	> 100 µM	> 100 µM	> 100 µM	> 100 µM	> 100 µM	> 100 µM	> 100 µM	> 100 µM	> 100 µM	> 100 µM and 10.3 µM	> 100 µM and 43.3 µM	
COc1ccc(C(F)(F)F)cc1NC(=O)O/N=C(/Cl)C(C)C	31.8 µM	66.2 µM	3.18 µM	31.9 µM	4.1 µM	33.6 µM	> 30.4 µM	46 µM	36.2 µM	36 µM	> 55.9 µM	37.4 µM	> 64.2 µM	56.5 µM	39.1 µM	35.6 µM	48.5 µM			
Cc1nc(SCC(=O)Nc2ccccc2)c2sc(=S)n(-c3ccccc3)c2n1	> 10 µM	> 10 µM	> 10 µM	> 10 µM	> 10 µM	> 10 µM	> 10 µM	> 10 µM	> 10 µM	> 10 µM	> 10 µM	> 10 µM	> 10 µM	> 10 µM	> 10 µM	> 10 µM	> 10 µM			
CCCCC/C=C1\CCC(CN2CCOCC2)C1=O (centres undefined)	7.17 µM	33.9 µM	9.79 µM	29.9 µM	13.7 µM	29.7 µM	21.8 µM	54.5 µM	33 µM	16.9 µM	7.73 µM	> 23.2 µM	49.8 µM	54.6 µM	35.9 µM	29.6 µM	21.2 µM			
NC(Cc1ccc2oc3cc(=O)c4ccccc4c-3nc2c1)C(=O)O (centres undefined)	> 100 µM	> 84.6 µM	> 97.7 µM	71.1 µM	21.5 µM	> 100 µM	> 88.3 µM	76.3 µM	> 100 µM	30.1 µM	11.2 µM	> 100 µM	32 µM	> 100 µM	> 87.6 µM	74.3 µM	59 µM			
c1ccc(N=C2SC(c3ccccc3)CN2C23CC4CC(CC(C4)C2)C3)cc1 (centres undefined)	> 100 µM	> 100 µM	> 100 µM	> 100 µM	> 100 µM	> 100 µM	> 100 µM	> 100 µM	> 100 µM	> 100 µM	> 100 µM	> 100 µM	> 100 µM	> 100 µM	> 100 µM	> 100 µM	> 100 µM			
CN(C)CCCNC(=O)c1cc(NC(=O)CCCn2c3ccccc3c3ccccc32)cn1C	> 100 µM	71.3 µM	> 100 µM	> 100 µM	59.8 µM	92 µM	> 100 µM	> 100 µM	33.9 µM	> 100 µM	> 100 µM	> 100 µM	> 100 µM	> 100 µM	> 100 µM	> 100 µM	> 100 µM			
Fc1ccc(C(OCCN2CC3CC2CN3CCCc2ccccc2)c2ccc(F)cc2)cc1 (centres undefined)	18 µM	18.3 µM	24.6 µM	21.7 µM	3.11 µM	18.5 µM	16.8 µM	29.1 µM	22.7 µM	3.79 µM	18.8 µM	15.7 µM	17.3 µM	19.8 µM	23.5 µM	21.8 µM	9.09 µM			
Cc1ccc(-c2n[nH]c(=O)n2N)cc1	> 100 µM	> 100 µM	> 100 µM	> 100 µM	> 100 µM	> 100 µM	> 100 µM	> 100 µM	> 100 µM	> 100 µM	> 100 µM	> 100 µM	> 100 µM	> 100 µM	> 100 µM	> 100 µM	> 100 µM			
N=C(N)SC1c2ccccc2-c2cc([N+](=O)[O-])ccc21 (centres undefined)	14.9 µM	14.6 µM	19.3 µM	20.3 µM	9.77 µM	29 µM	22.6 µM	21.2 µM	18 µM	17.7 µM	12.4 µM	23.6 µM	17.2 µM	16 µM	26.7 µM	13.9 µM	17.5 µM			
OC(CCN1CCN(CCOC(c2ccc(F)cc2)c2ccc(F)cc2)CC1)c1ccccc1 (centres undefined)	25.6 µM	19.5 µM	33.6 µM	45.6 µM	18.2 µM	26.1 µM	27.1 µM	36.5 µM	27.1 µM	28 µM	35.6 µM	28.8 µM	35.4 µM	26.8 µM	27.8 µM	30.1 µM	35.7 µM			
C/C(=N/NC(=S)Nc1cccc(Cl)c1)c1cccc(/C(C)=N\NC(=S)Nc2cccc(Cl)c2)n1	> 41.7 µM	> 100 µM	> 48.1 µM	16.2 µM	> 100 µM	> 39.7 µM	> 100 µM	23.8 µM	> 75.2 µM	7.76 µM	8.94 µM	> 100 µM	> 44.7 µM	> 100 µM	> 85.8 µM	> 43.9 µM	> 100 µM			
N#CC1(C#N)C(c2ccccc2)NC23CCCCC2C1(C#N)C(=O)N3 (centres undefined)	> 100 µM	> 100 µM	> 100 µM	> 100 µM	> 100 µM	> 100 µM	> 100 µM	> 100 µM	> 100 µM	> 100 µM	> 100 µM	> 100 µM	> 100 µM	> 100 µM	> 100 µM	> 100 µM	> 100 µM			
O=C(/C=C/c1ccc(O)c(O)c1)Oc1ccccc1	48.1 µM	> 100 µM	32.5 µM	42.8 µM	29.2 µM	> 72.9 µM	36.2 µM	49.2 µM	30.6 µM	55.2 µM	64.9 µM	61.8 µM	51 µM	43.5 µM	> 96.3 µM	44 µM	> 100 µM			
CC(C)C(OC(=O)c1cc(NC(=S)c2ccccc2)ccc1Cl)C(C)C	50.8 µM	58.4 µM	51.9 µM	> 96.7 µM	41.7 µM	> 86.4 µM	74.4 µM	> 100 µM	> 100 µM	> 84.8 µM	> 100 µM	57.4 µM	47.4 µM	> 100 µM	> 100 µM	52.6 µM	> 90 µM			
COc1cccc2c1[C@H](OC)[C@]13O[C@@]1(C2=O)[C@H](O)[C@H](C)[C@@](O)(C(=O)[C@@H]1O[C@H]1C)[C@@H]3O	2.52 µM	0.585 µM	0.88 µM	0.555 µM	0.415 µM	0.616 µM	2.07 µM	1.59 µM	0.576 µM	0.395 µM	4.86 µM	0.977 µM	0.617 µM	> 100 µM	2.05 µM	0.384 µM	0.654 µM		0.197 µM	0.211 µM
